# System: 242566-281-R-J2-PDC complex spheroid viability
# Assay: Anticancer human tumor 242566-281-R-J2-PDC patient-derived pancreatic carcinoma cell line growth inhibition [RAS]
# Conditions: for IC50: curve of first compound; for viability, T/C: stronger effect = lower value
# Procedure, shortened: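 Agents were tested in combination matrices in half-log decrements from a top concentration at or near clinical Cmax (10 microM if undetermined). Targets were multi-cell spheroids of tumour lines plus HUVEC and MSC stromal cells.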
# 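Note: spheroids exposed to compound for 7 days before readout.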
# 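Throughout, for viability, T/C: 100% = DMSO vehicle control wells.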
smiles,measurement,setting,value
CCc1c2c(nc3ccc(O)cc13)-c1cc3c(c(=O)n1C2)COC(=O)[C@]3(O)CC + C=CC(=O)N1CCN(c2nc(OCC3CCCN3C)nc3c(F)c(-c4nc(N)cc(C)c4C(F)(F)F)c(Cl)cc23)C(C)C1,IC50,second compound 0.00316 µM,31.6 nM
same,IC50,second compound 0.01 µM,34.8 nM
same,IC50,second compound 0.0316 µM,48.8 nM
same,IC50,second compound 0.1 µM,34.5 nM
same,IC50,second compound 0.316 µM,40.9 nM
same,IC50,second compound 1 µM,50.8 nM
same,"viability, T/C","second compound 0.00316 µM, first compound 0.000949 µM",94%
same,"viability, T/C","second compound 0.00316 µM, first compound 0.003 µM",121%
same,"viability, T/C","second compound 0.00316 µM, first compound 0.00949 µM",84.4%
same,"viability, T/C","second compound 0.00316 µM, first compound 0.03 µM",51%
same,"viability, T/C","second compound 0.00316 µM, first compound 0.0949 µM",27.1%
same,"viability, T/C","second compound 0.00316 µM, first compound 0.3 µM",13.1%
same,"viability, T/C","second compound 0.01 µM, first compound 0.000949 µM",103%
same,"viability, T/C","second compound 0.01 µM, first compound 0.003 µM",133%
same,"viability, T/C","second compound 0.01 µM, first compound 0.00949 µM",82.4%
same,"viability, T/C","second compound 0.01 µM, first compound 0.03 µM",56.1%
same,"viability, T/C","second compound 0.01 µM, first compound 0.0949 µM",26.9%
same,"viability, T/C","second compound 0.01 µM, first compound 0.3 µM",12.3%
same,"viability, T/C","second compound 0.0316 µM, first compound 0.000949 µM",112%
same,"viability, T/C","second compound 0.0316 µM, first compound 0.003 µM",132%
same,"viability, T/C","second compound 0.0316 µM, first compound 0.00949 µM",83.3%
same,"viability, T/C","second compound 0.0316 µM, first compound 0.03 µM",67.1%
same,"viability, T/C","second compound 0.0316 µM, first compound 0.0949 µM",32.3%
same,"viability, T/C","second compound 0.0316 µM, first compound 0.3 µM",11.8%
same,"viability, T/C","second compound 0.1 µM, first compound 0.000949 µM",111%
same,"viability, T/C","second compound 0.1 µM, first compound 0.003 µM",129%
same,"viability, T/C","second compound 0.1 µM, first compound 0.00949 µM",104%
same,"viability, T/C","second compound 0.1 µM, first compound 0.03 µM",54%
same,"viability, T/C","second compound 0.1 µM, first compound 0.0949 µM",23.1%
same,"viability, T/C","second compound 0.1 µM, first compound 0.3 µM",16%
same,"viability, T/C","second compound 0.316 µM, first compound 0.000949 µM",105%
same,"viability, T/C","second compound 0.316 µM, first compound 0.003 µM",137%
same,"viability, T/C","second compound 0.316 µM, first compound 0.00949 µM",77.1%
same,"viability, T/C","second compound 0.316 µM, first compound 0.03 µM",63.7%
same,"viability, T/C","second compound 0.316 µM, first compound 0.0949 µM",28.8%
same,"viability, T/C","second compound 0.316 µM, first compound 0.3 µM",14.7%
same,"viability, T/C","second compound 1 µM, first compound 0.000949 µM",104%
same,"viability, T/C","second compound 1 µM, first compound 0.003 µM",114%
same,"viability, T/C","second compound 1 µM, first compound 0.00949 µM",86.7%
same,"viability, T/C","second compound 1 µM, first compound 0.03 µM",66%
same,"viability, T/C","second compound 1 µM, first compound 0.0949 µM",32.7%
same,"viability, T/C","second compound 1 µM, first compound 0.3 µM",10.9%
Nc1ccn(C2OC(CO)C(O)C2(F)F)c(=O)n1 (stereo unspecified) + CCn1c(-c2cc(N3CCN(C)CC3)cnc2C(C)OC)c2c3cc(ccc31)-c1csc(n1)CC(NC(=O)C1CC1C)C(=O)N1CCCC(N1)C(=O)OCC(C)(C)C2,IC50,second compound 0.000949 µM,40.1 nM
same,IC50,second compound 0.003 µM,22.8 nM
same,IC50,second compound 0.00949 µM,< 3.16 nM
same,IC50,second compound 0.03 µM,< 3.16 nM
same,IC50,second compound 0.0949 µM,< 3.16 nM
same,IC50,second compound 0.3 µM,< 3.16 nM
same,"viability, T/C","second compound 0.000949 µM, first compound 0.00316 µM",94.2%
same,"viability, T/C","second compound 0.000949 µM, first compound 0.01 µM",87.7%
same,"viability, T/C","second compound 0.000949 µM, first compound 0.0316 µM",46.2%
same,"viability, T/C","second compound 0.000949 µM, first compound 0.1 µM",36.5%
same,"viability, T/C","second compound 0.000949 µM, first compound 0.316 µM",20.9%
same,"viability, T/C","second compound 0.000949 µM, first compound 1 µM",10.3%
same,"viability, T/C","second compound 0.003 µM, first compound 0.00316 µM",78.2%
same,"viability, T/C","second compound 0.003 µM, first compound 0.01 µM",57.9%
same,"viability, T/C","second compound 0.003 µM, first compound 0.0316 µM",43.5%
same,"viability, T/C","second compound 0.003 µM, first compound 0.1 µM",35.3%
same,"viability, T/C","second compound 0.003 µM, first compound 0.316 µM",24.3%
same,"viability, T/C","second compound 0.003 µM, first compound 1 µM",10.9%
same,"viability, T/C","second compound 0.00949 µM, first compound 0.00316 µM",50.5%
same,"viability, T/C","second compound 0.00949 µM, first compound 0.01 µM",36.2%
same,"viability, T/C","second compound 0.00949 µM, first compound 0.0316 µM",38.3%
same,"viability, T/C","second compound 0.00949 µM, first compound 0.1 µM",28.5%
same,"viability, T/C","second compound 0.00949 µM, first compound 0.316 µM",20.7%
same,"viability, T/C","second compound 0.00949 µM, first compound 1 µM",16.6%
same,"viability, T/C","second compound 0.03 µM, first compound 0.00316 µM",30.6%
same,"viability, T/C","second compound 0.03 µM, first compound 0.01 µM",27.1%
same,"viability, T/C","second compound 0.03 µM, first compound 0.0316 µM",25.5%
same,"viability, T/C","second compound 0.03 µM, first compound 0.1 µM",20.9%
same,"viability, T/C","second compound 0.03 µM, first compound 0.316 µM",16.9%
same,"viability, T/C","second compound 0.03 µM, first compound 1 µM",16.7%
same,"viability, T/C","second compound 0.0949 µM, first compound 0.00316 µM",22.3%
same,"viability, T/C","second compound 0.0949 µM, first compound 0.01 µM",21.4%
same,"viability, T/C","second compound 0.0949 µM, first compound 0.0316 µM",21.3%
same,"viability, T/C","second compound 0.0949 µM, first compound 0.1 µM",19.2%
same,"viability, T/C","second compound 0.0949 µM, first compound 0.316 µM",11.7%
same,"viability, T/C","second compound 0.0949 µM, first compound 1 µM",13.9%
same,"viability, T/C","second compound 0.3 µM, first compound 0.00316 µM",19.7%
same,"viability, T/C","second compound 0.3 µM, first compound 0.01 µM",18.2%
same,"viability, T/C","second compound 0.3 µM, first compound 0.0316 µM",18.5%
same,"viability, T/C","second compound 0.3 µM, first compound 0.1 µM",14.5%
same,"viability, T/C","second compound 0.3 µM, first compound 0.316 µM",13.1%
same,"viability, T/C","second compound 0.3 µM, first compound 1 µM",14.4%
CC(C)NCC(C(=O)N1CCN(c2ncnc3c2C(C)CC3O)CC1)c1ccc(Cl)cc1 (stereo unspecified) + C#Cc1c(F)ccc2cc(O)cc(-c3ncc4c(N5CC6CCC(C5)N6)nc(OCC56CCCN5CC(F)C6)nc4c3F)c12,IC50,second compound 0.0316 µM,7270 nM
same,IC50,second compound 0.1 µM,2950 nM
same,IC50,second compound 0.316 µM,1750 nM
same,IC50,second compound 1 µM,701 nM
same,IC50,second compound 3.16 µM,404 nM
same,IC50,second compound 10 µM,392 nM
same,"viability, T/C","second compound 0.0316 µM, first compound 0.0316 µM",74.9%
same,"viability, T/C","second compound 0.0316 µM, first compound 0.1 µM",116%
same,"viability, T/C","second compound 0.0316 µM, first compound 0.316 µM",86.2%
same,"viability, T/C","second compound 0.0316 µM, first compound 1 µM",84.8%
same,"viability, T/C","second compound 0.0316 µM, first compound 3.16 µM",66.6%
same,"viability, T/C","second compound 0.0316 µM, first compound 10 µM",43.7%
same,"viability, T/C","second compound 0.1 µM, first compound 0.0316 µM",97.8%
same,"viability, T/C","second compound 0.1 µM, first compound 0.1 µM",78.6%
same,"viability, T/C","second compound 0.1 µM, first compound 0.316 µM",74.5%
same,"viability, T/C","second compound 0.1 µM, first compound 1 µM",54.8%
same,"viability, T/C","second compound 0.1 µM, first compound 3.16 µM",58%
same,"viability, T/C","second compound 0.1 µM, first compound 10 µM",34.5%
same,"viability, T/C","second compound 0.316 µM, first compound 0.0316 µM",81.2%
same,"viability, T/C","second compound 0.316 µM, first compound 0.1 µM",81.1%
same,"viability, T/C","second compound 0.316 µM, first compound 0.316 µM",64.9%
same,"viability, T/C","second compound 0.316 µM, first compound 1 µM",55%
same,"viability, T/C","second compound 0.316 µM, first compound 3.16 µM",45.8%
same,"viability, T/C","second compound 0.316 µM, first compound 10 µM",23.9%
same,"viability, T/C","second compound 1 µM, first compound 0.0316 µM",71.8%
same,"viability, T/C","second compound 1 µM, first compound 0.1 µM",68.3%
same,"viability, T/C","second compound 1 µM, first compound 0.316 µM",59.4%
same,"viability, T/C","second compound 1 µM, first compound 1 µM",41.4%
same,"viability, T/C","second compound 1 µM, first compound 3.16 µM",37.5%
same,"viability, T/C","second compound 1 µM, first compound 10 µM",18.4%
same,"viability, T/C","second compound 3.16 µM, first compound 0.0316 µM",62.8%
same,"viability, T/C","second compound 3.16 µM, first compound 0.1 µM",64.2%
same,"viability, T/C","second compound 3.16 µM, first compound 0.316 µM",53.9%
same,"viability, T/C","second compound 3.16 µM, first compound 1 µM",34.5%
same,"viability, T/C","second compound 3.16 µM, first compound 3.16 µM",24.8%
same,"viability, T/C","second compound 3.16 µM, first compound 10 µM",16.4%
same,"viability, T/C","second compound 10 µM, first compound 0.0316 µM",61.6%
same,"viability, T/C","second compound 10 µM, first compound 0.1 µM",59.6%
same,"viability, T/C","second compound 10 µM, first compound 0.316 µM",52.7%
same,"viability, T/C","second compound 10 µM, first compound 1 µM",38.1%
same,"viability, T/C","second compound 10 µM, first compound 3.16 µM",22%
same,"viability, T/C","second compound 10 µM, first compound 10 µM",14.3%

# Source: PubChem BioAssay AID2060910 (Molecular Pharmacology Branch, DTP, NCI, 2025)
